In the CheMixHub viscosity set:
± gives the uncertainty stated by the source.

Assay: xn = mol fraction of the nth substance listed

NC=O + CO
Conditions	viscosity [mPa·s]
298.15 K, 100 kPa, x1 = 0.04242	0.594 ± 0.013
298.15 K, 100 kPa, x1 = 0.1098	0.672 ± 0.014
298.15 K, 100 kPa, x1 = 0.1552	0.728 ± 0.016
298.15 K, 100 kPa, x1 = 0.1966	0.784 ± 0.017
298.15 K, 100 kPa, x1 = 0.2342	0.843 ± 0.018
298.15 K, 100 kPa, x1 = 0.3571	1.06 ± 0.02
298.15 K, 100 kPa, x1 = 0.4211	1.2 ± 0.03
298.15 K, 100 kPa, x1 = 0.4775	1.33 ± 0.03
298.15 K, 100 kPa, x1 = 0.5097	1.42 ± 0.03
298.15 K, 100 kPa, x1 = 0.5776	1.6 ± 0.03
298.15 K, 100 kPa, x1 = 0.6744	1.9 ± 0.04
298.15 K, 100 kPa, x1 = 0.7135	2.03 ± 0.04
298.15 K, 100 kPa, x1 = 0.8191	2.45 ± 0.05
298.15 K, 100 kPa, x1 = 0.8522	2.6 ± 0.06
298.15 K, 100 kPa, x1 = 0.9099	2.86 ± 0.06
298.15 K, 101 kPa, x1 = 0.1	0.746 ± 0.008
298.15 K, 101 kPa, x1 = 0.2	0.861 ± 0.012
298.15 K, 101 kPa, x1 = 0.3	1.055 ± 0.019
298.15 K, 101 kPa, x1 = 0.3966	1.247 ± 0.026
298.15 K, 101 kPa, x1 = 0.4978	1.484 ± 0.037
298.15 K, 101 kPa, x1 = 0.6	1.749 ± 0.049
298.15 K, 101 kPa, x1 = 0.7	2.067 ± 0.066
298.15 K, 101 kPa, x1 = 0.7988	2.431 ± 0.086
298.15 K, 101 kPa, x1 = 0.902	2.874 ± 0.11
303.15 K, 101.3 kPa, x1 = 0.0714	0.55 ± 0.05
303.15 K, 101.3 kPa, x1 = 0.1586	0.63 ± 0.05
303.15 K, 101.3 kPa, x1 = 0.2422	0.74 ± 0.05
303.15 K, 101.3 kPa, x1 = 0.32	0.85 ± 0.05
303.15 K, 101.3 kPa, x1 = 0.3836	0.95 ± 0.05
303.15 K, 101.3 kPa, x1 = 0.5273	1.2 ± 0.1
303.15 K, 101.3 kPa, x1 = 0.5975	1.4 ± 0.1
303.15 K, 101.3 kPa, x1 = 0.6822	1.6 ± 0.1
303.15 K, 101.3 kPa, x1 = 0.7619	1.8 ± 0.1
303.15 K, 101.3 kPa, x1 = 0.8279	2 ± 0.1
303.15 K, 101.3 kPa, x1 = 0.917	2.3 ± 0.1
308.15 K, 101.3 kPa, x1 = 0.0714	0.51 ± 0.05
308.15 K, 101.3 kPa, x1 = 0.1586	0.59 ± 0.05
308.15 K, 101.3 kPa, x1 = 0.2422	0.68 ± 0.05
308.15 K, 101.3 kPa, x1 = 0.32	0.78 ± 0.05
308.15 K, 101.3 kPa, x1 = 0.3836	0.87 ± 0.05
308.15 K, 101.3 kPa, x1 = 0.5273	1.1 ± 0.05
308.15 K, 101.3 kPa, x1 = 0.5975	1.2 ± 0.1
308.15 K, 101.3 kPa, x1 = 0.6822	1.4 ± 0.1
308.15 K, 101.3 kPa, x1 = 0.7619	1.6 ± 0.1
308.15 K, 101.3 kPa, x1 = 0.8279	1.8 ± 0.1
308.15 K, 101.3 kPa, x1 = 0.917	2.1 ± 0.1
313.15 K, 101 kPa, x1 = 0.1	0.584 ± 0.004
313.15 K, 101 kPa, x1 = 0.2	0.685 ± 0.006
313.15 K, 101 kPa, x1 = 0.3	0.818 ± 0.01
313.15 K, 101 kPa, x1 = 0.3966	0.995 ± 0.016
313.15 K, 101 kPa, x1 = 0.4978	1.116 ± 0.021
313.15 K, 101 kPa, x1 = 0.6	1.307 ± 0.029
313.15 K, 101 kPa, x1 = 0.7	1.538 ± 0.039
313.15 K, 101 kPa, x1 = 0.7988	1.78 ± 0.051
313.15 K, 101 kPa, x1 = 0.902	2.09 ± 0.067
313.15 K, 101.3 kPa, x1 = 0.0714	0.48 ± 0.05
313.15 K, 101.3 kPa, x1 = 0.1586	0.54 ± 0.05
313.15 K, 101.3 kPa, x1 = 0.2422	0.63 ± 0.05
313.15 K, 101.3 kPa, x1 = 0.32	0.72 ± 0.05
313.15 K, 101.3 kPa, x1 = 0.3836	0.8 ± 0.05
313.15 K, 101.3 kPa, x1 = 0.5273	1.02 ± 0.05
313.15 K, 101.3 kPa, x1 = 0.5975	1.1 ± 0.1
313.15 K, 101.3 kPa, x1 = 0.6822	1.3 ± 0.1
313.15 K, 101.3 kPa, x1 = 0.7619	1.4 ± 0.1
313.15 K, 101.3 kPa, x1 = 0.8279	1.6 ± 0.1
313.15 K, 101.3 kPa, x1 = 0.917	1.9 ± 0.1
318.15 K, 101.3 kPa, x1 = 0.0714	0.46 ± 0.05
318.15 K, 101.3 kPa, x1 = 0.1586	0.51 ± 0.05
318.15 K, 101.3 kPa, x1 = 0.2422	0.58 ± 0.05
318.15 K, 101.3 kPa, x1 = 0.32	0.67 ± 0.05
318.15 K, 101.3 kPa, x1 = 0.3836	0.73 ± 0.05
318.15 K, 101.3 kPa, x1 = 0.5273	0.92 ± 0.05
318.15 K, 101.3 kPa, x1 = 0.5975	1.01 ± 0.05
318.15 K, 101.3 kPa, x1 = 0.6822	1.1 ± 0.1
318.15 K, 101.3 kPa, x1 = 0.7619	1.3 ± 0.1
318.15 K, 101.3 kPa, x1 = 0.8279	1.4 ± 0.1
318.15 K, 101.3 kPa, x1 = 0.917	1.6 ± 0.1
323.15 K, 101.3 kPa, x1 = 0.0714	0.42 ± 0.05
323.15 K, 101.3 kPa, x1 = 0.1586	0.47 ± 0.05
323.15 K, 101.3 kPa, x1 = 0.2422	0.54 ± 0.05
323.15 K, 101.3 kPa, x1 = 0.32	0.6 ± 0.05
323.15 K, 101.3 kPa, x1 = 0.3836	0.66 ± 0.05
323.15 K, 101.3 kPa, x1 = 0.5273	0.8 ± 0.05
323.15 K, 101.3 kPa, x1 = 0.5975	0.86 ± 0.05
323.15 K, 101.3 kPa, x1 = 0.6822	0.96 ± 0.05
323.15 K, 101.3 kPa, x1 = 0.7619	1.07 ± 0.05
323.15 K, 101.3 kPa, x1 = 0.8279	1.2 ± 0.1
323.15 K, 101.3 kPa, x1 = 0.917	1.3 ± 0.1

NC=O + OCCO
viscosity [mPa·s]
Conditions	293.15 K	298.15 K	303.15 K	308.15 K	313.15 K	318.15 K
100 kPa, x1 = 0.1003	16.54 ± 3.3	13.52 ± 2.7	11.1 ± 2.2	–	–	–
100 kPa, x1 = 0.2002	13.55 ± 2.7	10.99 ± 2.2	9.12 ± 1.8	–	–	–
100 kPa, x1 = 0.299	11.22 ± 2.2	8.878 ± 1.8	7.232 ± 1.4	–	–	–
100 kPa, x1 = 0.3975	9.55 ± 1.9	7.61 ± 1.5	6.151 ± 1.2	–	–	–
100 kPa, x1 = 0.5027	7.99 ± 1.6	6.541 ± 1.3	5.273 ± 1.1	–	–	–
100 kPa, x1 = 0.6014	6.85 ± 1.4	5.592 ± 1.1	4.603 ± 0.92	–	–	–
100 kPa, x1 = 0.7027	5.827 ± 1.2	4.71 ± 0.94	3.99 ± 0.8	–	–	–
100 kPa, x1 = 0.7999	4.96 ± 0.99	4.15 ± 0.83	3.647 ± 0.73	–	–	–
100 kPa, x1 = 0.9014	4.413 ± 0.88	3.817 ± 0.76	3.402 ± 0.68	–	–	–
101 kPa, x1 = 0.0612	17.53 ± 0.093	14.25 ± 0.077	11.64 ± 0.064	9.225 ± 0.052	7.801 ± 0.045	6.584 ± 0.039
101 kPa, x1 = 0.1204	15.35 ± 0.082	12.26 ± 0.067	9.875 ± 0.055	7.684 ± 0.044	6.506 ± 0.038	5.505 ± 0.034
101 kPa, x1 = 0.1859	13.53 ± 0.072	10.7 ± 0.059	8.482 ± 0.048	6.488 ± 0.038	5.384 ± 0.033	4.554 ± 0.028
101 kPa, x1 = 0.3302	10.35 ± 0.056	8.058 ± 0.045	6.301 ± 0.037	4.664 ± 0.029	3.8 ± 0.024	3.156 ± 0.02
101 kPa, x1 = 0.4517	8.301 ± 0.046	6.445 ± 0.037	5.002 ± 0.03	3.702 ± 0.023	3.055 ± 0.019	2.554 ± 0.016
101 kPa, x1 = 0.5643	6.692 ± 0.038	5.306 ± 0.032	4.172 ± 0.025	3.206 ± 0.02	2.716 ± 0.017	2.379 ± 0.015
101 kPa, x1 = 0.6596	5.526 ± 0.032	4.526 ± 0.027	3.708 ± 0.023	2.947 ± 0.018	2.556 ± 0.016	2.322 ± 0.014
101 kPa, x1 = 0.7454	4.685 ± 0.028	4.003 ± 0.024	3.403 ± 0.021	2.808 ± 0.017	2.476 ± 0.015	2.292 ± 0.014
101 kPa, x1 = 0.8195	4.186 ± 0.025	3.721 ± 0.022	3.234 ± 0.019	2.753 ± 0.017	2.45 ± 0.015	2.271 ± 0.014
101 kPa, x1 = 0.8883	3.908 ± 0.023	3.526 ± 0.021	3.126 ± 0.019	2.727 ± 0.016	2.438 ± 0.015	2.251 ± 0.014
101 kPa, x1 = 0.9491	3.714 ± 0.022	3.39 ± 0.02	3.025 ± 0.018	2.692 ± 0.016	2.425 ± 0.015	2.236 ± 0.014
101 kPa, x2 = 0.0761	–	–	–	2.392 ± 0.22	–	–
101 kPa, x2 = 0.1538	–	–	–	2.439 ± 0.22	–	–
101 kPa, x2 = 0.2311	–	–	–	2.487 ± 0.23	–	–
101 kPa, x2 = 0.3245	–	–	–	2.636 ± 0.24	–	–
101 kPa, x2 = 0.4125	–	–	–	2.996 ± 0.27	–	–
101 kPa, x2 = 0.5236	–	–	–	4.026 ± 0.35	–	–
101 kPa, x2 = 0.6337	–	–	–	5.164 ± 0.44	–	–
101 kPa, x2 = 0.7468	–	–	–	6.594 ± 0.54	–	–
101 kPa, x2 = 0.8596	–	–	–	8.193 ± 0.64	–	–
